Target: Beta-3 Adrenergic Receptor (Homo sapiens (Human), UniProt P13945)
Test: Homogeneous Time-Resolved Fluorescence (HTRF) cAMP antagonist assay, IC50 determination
Format: cell-based
Conditions: CHO-K1 cells stably expressing recombinant receptor, isoproterenol at EC90
How it was run: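 Antagonist mode: isoproterenol at its predetermined EC90 added after compound to recombinant CHO-K1 cells in IBMX-containing PBS, 1 h, room temperature. Compounds tested as 5-fold, 10-point dilutions, top final typically 10 or 100 μM. HTRF signal converted to cAMP via standard curve, giving IC50.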

Chain of Beta-3 Adrenergic Receptor (P13945 whole entry, species assumed): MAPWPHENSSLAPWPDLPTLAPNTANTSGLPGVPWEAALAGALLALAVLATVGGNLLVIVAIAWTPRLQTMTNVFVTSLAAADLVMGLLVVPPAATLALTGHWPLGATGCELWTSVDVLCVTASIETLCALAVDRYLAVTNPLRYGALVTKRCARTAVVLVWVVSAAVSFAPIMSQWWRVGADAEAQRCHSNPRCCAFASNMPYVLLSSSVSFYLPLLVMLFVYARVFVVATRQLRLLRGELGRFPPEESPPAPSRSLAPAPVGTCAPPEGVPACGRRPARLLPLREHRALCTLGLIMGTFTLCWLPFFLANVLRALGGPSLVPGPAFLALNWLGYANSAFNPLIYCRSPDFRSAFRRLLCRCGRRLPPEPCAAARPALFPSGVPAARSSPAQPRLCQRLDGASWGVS

Row | SMILES | IC50
1 | CN(C)S(=O)(=O)c1cccc(OC[C@@H](O)CNC2COC3(CCN(S(=O)(=O)c4ccc(CN)cc4)CC3)C2)c1 (stereo partly drawn) [Compound 290, 3-((2S)-3-(8-(4-(aminomethyl)phenylsulfonyl)-1-oxa-8-azaspiro[4.5]decan-3-ylamino)-2-hydroxypropoxy)-N,N-dimethylbenzenesulfonamide] | 175 nM
2 | CNS(=O)(=O)c1cccc(OC[C@@H](O)CN[C@H]2COC3(CCN(S(=O)(=O)c4cccc(-c5ccc(S(N)(=O)=O)cc5)c4)CC3)C2)c1 [Compound 292, 3′-((R)-3-((S)-2-hydroxy-3-(3-(N-methylsulfamoyl)phenoxy)propylamino)-1-oxa-8-azaspiro[4.5]decan-8-ylsulfonyl)biphenyl-4-sulfonamide] | 30.1 nM
3 | CNS(=O)(=O)c1cccc(OC[C@@H](O)CN[C@H]2COC3(CCN(S(=O)(=O)c4cccc(-c5ccc(CC#N)cc5)c4)CC3)C2)c1 [Compound 294, 3-((S)-3-((R)-8-(4′-(cyanomethyl)biphenyl-3-ylsulfonyl)-1-oxa-8-azaspiro[4.5]decan-3-ylamino)-2-hydroxypropoxy)-N-methylbenzenesulfonamide] | 56.2 nM
4 | CNS(=O)(=O)c1cccc(OC[C@@H](O)CN[C@H]2COC3(CCN(S(=O)(=O)c4cccc(-c5cc[nH]n5)c4)CC3)C2)c1 [Compound 296, 3-((S)-3-((R)-8-(3-(1H-pyrazol-3-yl)phenylsulfonyl)-1-oxa-8-azaspiro[4.5]decan-3-ylamino)-2-hydroxypropoxy)-N-methylbenzenesulfonamide] | 17.5 nM

The next molecules have a lower IC50 than those just listed; values first:

Row | IC50 | SMILES
5 | 13.4 nM | CNS(=O)(=O)c1cccc(OC[C@@H](O)CN[C@@H]2COC3(CCN(S(=O)(=O)c4cccc(-c5ccc(CN)cc5)c4)CC3)C2)c1 [Compound 288, 3-((S)-3-((S)-8-(4′-(aminomethyl)biphenyl-3-ylsulfonyl)-1-oxa-8-azaspiro[4.5]decan-3-ylamino)-2-hydroxypropoxy)-N-methylbenzenesulfonamide]
6 | 16.5 nM | CNS(=O)(=O)c1cccc(OC[C@@H](O)CN[C@H]2COC3(CCN(S(=O)(=O)c4cccc(-c5ccc(CN)cc5)c4)CC3)C2)c1 [Compound 289, 3-((S)-3-((R)-8-(4′-(aminomethyl)biphenyl-3-ylsulfonyl)-1-oxa-8-azaspiro[4.5]decan-3-ylamino)-2-hydroxypropoxy)-N-methylbenzenesulfonamide]
7 | 8.84 nM | CNS(=O)(=O)c1cccc(OC[C@@H](O)CN[C@@H]2COC3(CCN(S(=O)(=O)c4cccc(-c5ccc(S(N)(=O)=O)cc5)c4)CC3)C2)c1 [Compound 291, 3′-((S)-3-((S)-2-hydroxy-3-(3-(N-methylsulfamoyl)phenoxy)propylamino)-1-oxa-8-azaspiro[4.5]decan-8-ylsulfonyl)biphenyl-4-sulfonamide]
8 | 16.2 nM | CNS(=O)(=O)c1cccc(OC[C@@H](O)CN[C@@H]2COC3(CCN(S(=O)(=O)c4cccc(-c5ccc(CC#N)cc5)c4)CC3)C2)c1 [Compound 293, 3-((S)-3-((S)-8-(4′-(cyanomethyl)biphenyl-3-ylsulfonyl)-1-oxa-8-azaspiro[4.5]decan-3-ylamino)-2-hydroxypropoxy)-N-methylbenzenesulfonamide]
9 | 7.22 nM | CNS(=O)(=O)c1cccc(OC[C@@H](O)CN[C@@H]2COC3(CCN(S(=O)(=O)c4cccc(-c5cc[nH]n5)c4)CC3)C2)c1 [Compound 295, 3-((S)-3-((S)-8-(3-(1H-pyrazol-3-yl)phenylsulfonyl)-1-oxa-8-azaspiro[4.5]decan-3-ylamino)-2-hydroxypropoxy)-N-methylbenzenesulfonamide]
10 | 15.9 nM | CNS(=O)(=O)c1cccc(OC[C@@H](O)CN[C@@H]2COC3(CCN(S(=O)(=O)c4cccc(-c5ccc(OCC#N)cc5)c4)CC3)C2)c1 [Compound 297, 3-((S)-3-((S)-8-(4′-(cyanomethoxy)biphenyl-3-ylsulfonyl)-1-oxa-8-azaspiro[4.5]decan-3-ylamino)-2-hydroxypropoxy)-N-methylbenzenesulfonamide]

Reference: patent US11987588B2, “Modulators of the beta-3 adrenergic receptor useful for the treatment or prevention of heart failure and disorders related thereto” (Arena Pharmaceuticals, Inc., priority 2017, dated 2024)
